The conditions of data set [1]: cited from earlier work.
The nature of data set [2]: Biodistribution in normal mice after intravenous injection (renal uptake). Type of data set: in vivo. The procedure:
Tc-99m-MAGGG was administered simultaneously with I-131 OIH (as a reference standard) to six mice in two groups. Each mouse was injected intravenously with 0.1 milliliters of a preparation containing 0.5 microcuries of Tc-99m-MAGGG and 0.2 microcuries of I-131 OIH, and then placed into a metabolic cage capable of collecting excreted urine.
Ten minutes after injection, each mouse's urethra was ligated and the mouse was sacrificed by chloroform vapor; various samples were then taken to determine biodistribution of radiolabeled material. The results of these samples are shown in Table I. Similar measurements, shown in Table II, were taken on the second group of mice 120 minutes after injection.

A short description of data set [3]: Renal excretion in humans (normal volunteers). It is filed as in vivo. On the procedure: The renal excretion of Tc-99m-MAGGG in humans was obtained based upon experiments on normal volunteers. For purposes of comparison, tests were also conducted using I-131 OIH either immediately before or after the study using Tc-99m-MAGGG.
In Example 6, the Tc-99m-MAGGG used was prepared with stannous reduction similar to the procedure set forth in Example 2, with glucoheptonate being used as an intermediate exchange ligand. In Example 7, dithionite was used as a reducing agent instead of using stannous reduction. Both examples provided Tc-99m-MAGGG having the same major peak on a HPLC column.
In both examples, the subject was injected with a dosage containing about 15 millicuries of Tc-99m-MAGGG. The comparative tests utilizing I-131 OIH involved administration of about 300 microcuries of I-131 OIH. In both instances, imaging of the kidneys ureters, and blood pool was conducted for a period of about 30 minutes, following which the count rate in the bladder was measured.
Thereafter, the bladder was voided, and an additional image was taken to detect the presence of residual radioactivity in order to allow determination of the percent of urine radioactivity at 30 minutes. Measurements were also taken at 3 hours.

Data set [4] is described as follows: Biodistribution in probenicid-treated mice (inhibited renal tubular transport). It is filed as in vivo. As to conditions: probenicid-treated mice (50 mg/kg), 10 minutes after injection. The procedure:
In order to test the biodistribution of Tc-99m-MAGGG in mice having inhibited renal tubular transport, six mice were injected with a solution of probenicid at the rate of 50 milligrams of probenicid per kilogram of body weight. Ten minutes later, each mouse was injected with 0.1 milliliters of a solution containing 0.5 microcuries of Tc-99m-MAGGG and 0.2 microcuries of I-131 OIH. After an additional ten minutes, each mouse was sacrificed and various samples taken to determine biodistribution of radiolabeled material.

As for “Tc-99m diethylenetriaminepentaacetic acid [Tc-99m-DTPA]”, the maximum extraction efficiency in data set [1] (glomerular filtration only) is 20-25%.
As for `O=C(O)CNC(=O)c1ccccc1[131I]` [I-131 OIH, I-131 ortho-iodohippurate, reference compound], in data set [2] (10 minutes after injection), the Blood is reported as 4.1 percentage of radioactive agen, the Intestine is on record as 1.0 percentage of radioactive agen, the Kidneys is 2.2 percentage of radioactive agen and the Liver is reported as 1.8 percentage of radioactive agen. Besides, in data set [2] (10 minutes after injection), the Stomach is recorded as 0.5 percentage of radioactive agen and the Urine is given as 74.4 percentage of radioactive agen. In addition, in data set [2] (120 minutes after injection), the Blood is 0.14 percentage of radioactive agen, the Intestine is given as 0.16 percentage of radioactive agen, the Kidneys is reported as 0.06 percentage of radioactive agen and the Liver is 0.11 percentage of radioactive agen. In data set [2] (120 minutes after injection), the Stomach was 0.98 percentage of radioactive agen and the Urine is reported as 96.0 percentage of radioactive agen. For the same molecule, the renal extraction efficiency in data set [1] (in vivo) was 65%-80. Besides, the “urine radioactivity (renal excretion)” value in data set [3] (30 minutes) is listed as 65.5 ± 6.3 percentage of radioactive agen. For the same molecule, the “urine radioactivity (renal excretion)” value in data set [3] (3 hours) was 93.5 ± 3.2 percentage of radioactive agen. For the same molecule, in data set [4], the Blood was 7.0 percentage of radioactive agen, the Intestine was 2.0 percentage of radioactive agen, the Kidneys was 3.6 percentage of radioactive agen and the Liver was 3.7 percentage of radioactive agen. In data set [4], the Stomach is recorded as 0.75 percentage of radioactive agen and the Urine is reported as 59.2 percentage of radioactive agen.
On to “Tc-99m-N,N'-bis(mercaptoacetyl)-2,3-diaminopropanoate [Tc-99m-CO2 -DADS-A]”, for which the “excreted less effectively than I-131 OIH” value in data set [1] (in vivo) was approximately 20%.
In the case of “Tc-99m-N,N'-bis(mercaptoacetyl)-2,3-diaminopropanoate [Tc-99m-CO2 -DADS-B]”, the “removal by the kidneys compared with Tc-99m-CO2-DADS-A isomer” value in data set [1] (in vivo) was “far less efficiently removed by the kidneys”.
For “Tc-99m-mercaptoacetylglycylglycylglycine [Tc-99m-MAGGG]”, the “level in the urine relative to corresponding level of I-131 OIH” value in data set [2] (10 minutes) is recorded as 107.3%. Also, in data set [2] (10 minutes after injection), the Blood is reported as 2.6 percentage of radioactive agen, the Intestine is recorded as 1.1 percentage of radioactive agen, the Kidneys is 3.5 percentage of radioactive agen and the Liver is reported as 2.9 percentage of radioactive agen. In addition, in data set [2] (10 minutes after injection), the Stomach is listed as 0.1 percentage of radioactive agen and the Urine was 79.9 percentage of radioactive agen. In addition, in data set [2] (120 minutes), the “level in the urine relative to corresponding level of I-131 OIH” value was 102.6%. Also, in data set [2] (120 minutes after injection), the Blood is given as 0.03 percentage of radioactive agen, the Intestine is 1.2 percentage of radioactive agen, the Kidneys was 0.06 percentage of radioactive agen and the Liver was 0.08 percentage of radioactive agen. Also, in data set [2] (120 minutes after injection), the Stomach was 0.02 percentage of radioactive agen and the Urine is given as 98.5 percentage of radioactive agen. In addition, the “urine radioactivity (renal excretion)” value in data set [3] (30 minutes) is 71.8 ± 4.2 percentage of radioactive agen. Also, in data set [3] (3 hours), the “urine radioactivity (renal excretion)” value is listed as 98.6 ± 1.6 percentage of radioactive agen. In data set [4], the Blood is reported as 6.0 percentage of radioactive agen, the Intestine is 1.6 percentage of radioactive agen, the Kidneys is listed as 5.4 percentage of radioactive agen and the Liver is 5.9 percentage of radioactive agen. Besides, in data set [4], the Stomach was 0.24 percentage of radioactive agen and the Urine is on record as 64.7 percentage of radioactive agen.
As for “Tc-99m-mercaptoacetylglycylglycylglycylglycine [Tc-99m-MAGGGG]”, the “level in the urine relative to corresponding level of I-131 OIH” value in data set [2] (10 minutes) is 86.7%. In data set [2] (10 minutes after injection), the Blood is 2.7 percentage of radioactive agen, the Intestine was 10.3 percentage of radioactive agen, the Kidneys is recorded as 3.3 percentage of radioactive agen and the Liver is reported as 9.9 percentage of radioactive agen. In addition, in data set [2] (10 minutes after injection), the Stomach result is reported as “.2 percentage of radioactive agen” and the Urine is given as 58.4 percentage of radioactive agen. Also, the “level in the urine relative to corresponding level of I-131 OIH” value in data set [2] (120 minutes) amounted to 87.6%. Further, in data set [2] (120 minutes after injection), the Blood result was “.04 percentage of radioactive agen”, the Intestine was 16.0 percentage of radioactive agen, the Kidneys result is listed as “.2 percentage of radioactive agen” and the Liver is listed as 1.1 percentage of radioactive agen. In data set [2] (120 minutes after injection), the Stomach result is “.05 percentage of radioactive agen” and the Urine was 82.5 percentage of radioactive agen.
Take “Tc-99m-mercapoacetylglycylglycylalanine [Tc-99m-MAGG-Alanine]”: in data set [2] (10 minutes), the “level in the urine relative to corresponding level of I-131 OIH” value came to 106.4%. Further, in data set [2] (10 minutes after injection), the Blood is reported as 2.6 percentage of radioactive agen, the Intestine is reported as 1.6 percentage of radioactive agen, the Kidneys was 5.2 percentage of radioactive agen and the Liver was 2.6 percentage of radioactive agen. For the same molecule, in data set [2] (10 minutes after injection), the Stomach result is recorded as “.2 percentage of radioactive agen” and the Urine was 75.1 percentage of radioactive agen. Also, in data set [2] (120 minutes), the “level in the urine relative to corresponding level of I-131 OIH” value is on record as 102.2%. Also, in data set [2] (120 minutes after injection), the Blood result is listed as “.2 percentage of radioactive agen”, the Intestine is recorded as 2.2 percentage of radioactive agen, the Kidneys entry was “.3 percentage of radioactive agen” and the Liver result is “.1 percentage of radioactive agen”. Moreover, in data set [2] (120 minutes after injection), the Stomach result is listed as “.2 percentage of radioactive agen” and the Urine is on record as 96.0 percentage of radioactive agen.
For the molecule `Nc1ccc(C(=O)NCC(=O)O)cc1` [PAH, para-aminohippuric acid], in data set [1] (in vivo), the “fraction in the blood removed by the kidneys” value was approximately 90% and the “fraction removed from the plasma by active secretion into the tubules” value is given as approximately 70%.

These data come from US5573748A, “Radiolabeled technetium chelates for use in renal function determinations” (University of Utah Research Foundation, priority 1994, dated 1996).
